Laboratory results published in patent US8354422B2, “Pyrimidine inhibitors of kinase activity” (Abbott Laboratories Inc., priority 2009, dated 2013).

Each molecule was assayed against T1, C-terminal GST-tagged, recombinant, human IGF-1R, amino acids 954-1367 (Homo sapiens, UniProt P08069) (assay: IGF-1R kinase activity, homogenous time-resolved fluorescence (HTRF) in vitro kinase assay). Conditions: IGF-1R kinase HTRF assay, ATP 50 μM, biotinylated peptide substrate 0.5 μM, 60 minutes at room temperature.
T1 construct: human IGF-1R, amino acids 954-1367 expressed by baculovirus in Sf21 cells; GST (C); purchased Cell Signaling Technology; host or cells: baculovirus in Sf21 cells
Format: biochemical
Method in brief: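 HTRF assay with baculovirus/Sf21-expressed enzyme, 50 μM ATP, 0.5 μM biotinylated peptide substrate, 2% DMSO, in HEPES pH 7.5 buffer with MgCl2, 2 mM MnCl2, BSA, DTT; 60 min at room temperature. EDTA-quenched, detected with streptavidin-APC and Eu-cryptate anti-phosphotyrosine mAb; 615/665 nm ratio used for IC50.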

T1 sequence (P08069 954-1367): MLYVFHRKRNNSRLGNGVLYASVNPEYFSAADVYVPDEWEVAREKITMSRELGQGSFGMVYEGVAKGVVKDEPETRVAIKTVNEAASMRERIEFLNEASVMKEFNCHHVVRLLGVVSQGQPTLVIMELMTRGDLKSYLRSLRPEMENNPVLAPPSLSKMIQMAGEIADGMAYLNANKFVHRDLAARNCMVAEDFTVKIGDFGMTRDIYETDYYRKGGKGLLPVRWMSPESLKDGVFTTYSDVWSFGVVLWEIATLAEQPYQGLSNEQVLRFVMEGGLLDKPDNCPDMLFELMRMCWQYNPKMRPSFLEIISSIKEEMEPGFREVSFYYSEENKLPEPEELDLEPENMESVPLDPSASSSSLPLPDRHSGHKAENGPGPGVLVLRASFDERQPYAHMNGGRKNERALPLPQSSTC

IC50, 101 to 500 nM:
OCCn1cc(Nc2nccc(-c3c(-c4ccc(OCc5ccccc5)cc4)nc4ccccn34)n2)cn1 [Example 27, 2-{4-[(4-{2-[4-(benzyloxy)phenyl]imidazo[1,2-a]pyridin-3-yl}pyrimidin-2-yl)amino]-1H-pyrazol-1-yl}ethanol]
Cc1cc(OCc2ccccc2)ccc1-c1nc2ccccn2c1-c1ccnc(Nc2cccc(CCN(C)C)c2)n1 [Example 10, 4-{2-[4-(benzyloxy)-2-methylphenyl]imidazo[1,2-a]pyridin-3-yl}-N-{3-[2-(dimethylamino)ethyl]phenyl}pyrimidin-2-amine]
COc1cc(N2CCC(N3CCN(C)CC3)CC2)ccc1Nc1nccc(-c2c(-c3ccc(OCc4ccccc4)cc3)nc3ccccn23)n1 [Example 13, 4-{2-[4-(benzyloxy)phenyl]imidazo[1,2-a]pyridin-3-yl}-N-{2-methoxy-4-[4-(4-methylpiperazin-1-yl)piperidin-1-yl]phenyl}pyrimidin-2-amine]
